Experimental data reported in US11612572B2, “Treatment of schizophrenia using beta-caryophyllene and CB2 receptor agonists” (priority 2012, dated 2023).
Entries after “also recorded” stand apart in the source; their conditions may differ.

Key:
[1] = system: MGL; test: Expression of MGL in brain tissue; format: in vivo; conditions: PCP vs control, 2 week old mice
Text: Expression of MGL in 2 Week Old Mice

[2] = system: mouse model of schizophrenia; test: Behavior in the Phenotyper cage; format: in vivo, mice; conditions: Study II
[3] = system: CB2 receptor; test: Expression level of CB2 receptor in brain tissue; format: in vivo, mice; conditions: for mRNA expression of CB2 receptor: PCP-treated vs control mice, 9 days old
Experimental: (§1) Expression Level of CB1 and CB2 Receptor in Mice at 9 Days Old (mRNA) or 2 Weeks Old (Protein)
(§2) Brain tissue of control mice (saline treated) and mice treated with PCP were analyzed in the left and right cortex and brain stem (FIGS. 7A-I; FIG. 8. Results from the cortex and brain stem were reported by the Inventors in 2011 (Anavi-Goffer et al).

[4] = system: mouse model of schizophrenia; test: Elevated Plus Maze test; conditions: Study I, age 13 weeks
[5] = Body weight of mice in the neonatal PCP model
[6] = system: GAD67; test: Expression level of GAD67 in brain tissue; format: in vivo, mice; conditions: PCP vs control; for GAD67 protein level: 2 weeks old; for GAD67 mRNA level: 9 days old
Experimental: Expression Level of GAD67 in Mice at 9 Days Old (mRNA) or 2 Weeks Old (Protein)
Brain tissue of control mice and mice treated with PCP were analyzed for GAD67, a neurochemical marker for schizophrenia (FIG. 9A-F).

[7] = system: mouse model of schizophrenia; test: Open-field test (ambulation/crossing, rearing, grooming)
[8] = system: mouse model of schizophrenia; test: Prepulse inhibition (PPI) of the startle reflex; conditions: Study I, age 8 weeks
[9] = system: CB1 receptor; test: Expression level of CB1 receptor in brain tissue; format: in vivo; conditions: PCP-treated vs control mice, 9 days old
Experimental: as §1, §2

[10] = biological target: T1, cannabinoid receptor CB2 (Homo sapiens, UniProt P34972); conditions: cited from earlier work
[11] = biological target: T1, cannabinoid receptor CB2; conditions: at CB2; cited from earlier work
[12] = Study III: male mice, PND 17, PCP 5 mg/kg, 1 h later BCP 10 mg/kg or BCP+AM630 10 mg/kg each, DMSO-based vehicle

T1 sequence (P34972 whole entry): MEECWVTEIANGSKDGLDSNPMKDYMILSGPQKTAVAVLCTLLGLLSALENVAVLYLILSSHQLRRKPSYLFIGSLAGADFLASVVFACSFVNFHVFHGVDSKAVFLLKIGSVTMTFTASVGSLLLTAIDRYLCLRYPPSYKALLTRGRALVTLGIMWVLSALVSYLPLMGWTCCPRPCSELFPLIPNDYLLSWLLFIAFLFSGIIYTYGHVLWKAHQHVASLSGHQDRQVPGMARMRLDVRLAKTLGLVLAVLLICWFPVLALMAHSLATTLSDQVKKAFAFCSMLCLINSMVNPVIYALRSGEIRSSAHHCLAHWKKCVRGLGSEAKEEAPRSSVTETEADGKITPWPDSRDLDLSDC

For c1ccc(C2(N3CCCCC3)CCCCC2)cc1 [PCP, Phencyclidine, reference compound], the “protein level of MGL” value ([1]; Western blotting (FIG. 10C)) was “reduction in protein level of MGL”, the “mRNA levels of MGL” value ([1]; left cortex (FIG. 10A)) was “decreased” and the “frequency of entries to the wheel” value ([2]; PND 91, females and males) was “reduced the frequency of entries to the wheel”. For the same compound, the “time spent in the Hidden Zone” value ([2]; PND 91, females and males) was “increased the time spend at the Hidden Zone”, the “frequency of entries to the hidden zone” value ([2]; PND 91, males (FIG. 20D)) was “appeared to reduce the frequency of entries to the Hidden Zone in males” and the “frequency of entries to the hidden zone” value ([2]; PND 105) was “increased the frequency of entries to the Hidden Zone”. For the same compound, the “mRNA expression of CB2 receptor” value ([3]; brain stem) was “significant increase”, the “mRNA expression of CB2 receptor” value ([3]; left cortex) was “significant increase” and the “mRNA expression of CB2 receptor” value ([3]; right cortex) was “no difference between control and PCP-treated mice”. The “CB2 receptor expression level” value ([3]; following administration of PCP, different brain areas) was “selectively down-regulated in different brain areas”, the “putative CB2 receptor expression” value ([3]; mice neonatally treated with phencyclidine, right cortex and basal ganglia/diencephalon) was “up-regulation” and the “time spent in the distal end of the opened arm (anxiety)” value ([4]; females (FIGS. 6E, 6G)) was “reduced the time spent in the distal end of the opened arm; also recorded: induced anxiety in female mice”. The “time spent in the distal end of the opened arm (anxiety)” value ([4]; males (FIGS. 6F, 6H)) was “increased the time spent in the distal end of the opened arm; also recorded: anxiolytic effect in male mice”, the body weight ([5]; Study I, ethanol-based vehicle, PND 7 / first week of life (FIG. 1B)) was “induced a significant reduction in body weight” and the body weight ([5]; Study I: PCP 5 mg/kg PND 3-16, BCP 10 mg/kg 1 h after PCP, ethanol-based vehicle, each day of injection PND 3-17 (FIG. 1A)) was “significantly reduce the body weight”. For the same compound, the body weight ([5]; Study I, PND 17 (FIG. 2C)) was “still significant”, the body weight ([5]; Study I, PND 35-37, males (FIG. 4A)) was “no significant difference in male body weight between the groups” and the body weight ([5]; Study II: PCP 5 mg/kg, days 3, 5, 7, 10, 12, 15 and 17, male and female (FIG. 13A)) was “significantly reduced body weight”. For the same compound, the body weight ([5]; Study II, PND 63 (FIG. 14B)) was “no significant difference in the body weight between vehicle-treated mice and PCP-treated mice”, the GAD67 protein level ([6]; brain stem, Western blotting (FIG. 9C)) was “non-significant reduction” and the GAD67 protein level ([6]; left cortex (FIG. 9A)) was “significantly decreased”. The GAD67 protein level ([6]; right cortex (FIG. 9B)) was “did not reach a significant level”, the “GAD67 mRNA level” value ([6]; brain stem (FIG. 9F)) was “increased” and the “GAD67 mRNA level” value ([6]; left cortex (FIG. 9D)) was “no change was found at the mRNA level”. For the same compound, the “GAD67 mRNA level” value ([6]; right cortex (FIG. 9E)) was “no change was seen in the mRNA level”, the rearing ([7]; Study I, ethanol-based vehicle, PND 17 (FIG. 2B)) was “significantly inhibited both ambulation and rearing behaviors” and the “ambulation (exploration)” value ([7]; Study I: PCP 5 mg/kg, BCP 10 mg/kg, ethanol-based vehicle, PND 17 (FIG. 2A)) was “significantly inhibited both ambulation and rearing behaviors”. The ambulation ([7]; Study I, PND 17, females) was “more sensitive to the effect of PCP”, the rearing behavior ([7]; Study I, PND 17, females) was “more sensitive to the effect of PCP” and the locomotor activity ([7]; Study I, PND 17, males) was “appeared to be less sensitive to the treatment of PCP or PCP+BCP”. For the same compound, the “rearing and exploration behaviors” value ([7]; Study I, PND 35-37, females (FIGS. 4E, 4F)) was “no differences in rearing and exploration behaviors were seen between the different groups”, the locomotor activity ([7]; Study I, PND 35-37, males (FIG. 4C)) was “significantly increased the locomotor activity compared with vehicle treatment” and the ambulation ([7]; Study II: PCP 5 mg/kg, PND 16 (FIG. 13B)) was “significantly inhibited”. The rearing ([7]; Study II: PCP 5 mg/kg, PND 16 (FIG. 13C)) was “significantly inhibited”, the ambulation [7, 12] was “significantly inhibited both ambulation and rearing behaviors” and the rearing [7, 12] was “significantly inhibited both ambulation and rearing behaviors”. For the same compound, the “% inhibition (ability to adjust to sound stimulus, PPI)” value ([8]; females (FIG. 5D)) was “No significant difference”, the “% inhibition (ability to adjust to sound stimulus, PPI)” value ([8]; males (FIG. 5B)) was “significant reduction in their ability to adjust to sound stimulus” and the “mRNA expression of CB1 receptor” value ([9]; brain stem) was “significant increase”. The “mRNA expression of CB1 receptor” value ([9]; left or right cortex) was “No significant increase”.
In the case of COc1ccc(C(=O)c2c(C)n(CCN3CCOCC3)c3cc(I)ccc23)cc1 [AM630, 6-Iodopravadoline, reference compound], the “activity at CB2 receptor” value [10] is listed as “potent and selective inverse agonist”, the Ki [11] is listed as 32.1 nM and the “open-field behaviors compared with PCP-treated mice” value ([7]; Study III: PCP+BCP+AM630 group, male mice, PND 17) is listed as “not significantly different from these of PCP-treated mice”. The ambulation [7, 12] was “reversed the effects of BCP on ambulation and rearing behaviors; also recorded: reversed the effect of BCP on PCP-induced inhibition of ambulation and rearing” and the rearing [7, 12] was “reversed the effects of BCP on ambulation and rearing behaviors; also recorded: reversed the effect of BCP on PCP-induced inhibition of ambulation and rearing”.
